Results: patent US20040235982A1, “Polymer emulsions resistant to biodeterioration” (priority 2003, published 2004)
Where a name gives a salt, the structure may show the parent alone. Read-outs that look alike come from different tables or passages of the source.

Legend:
[1] = test system: yeasts and molds; assay: Fungal biochallenge test in Airflex 410 VAE polymer emulsion; settings: for Growth on PDA / Surface Fungal Growth: 200 ppm; for Growth on PDA: streak plate after 28 days incubation; for Surface Fungal Growth: visual after 28 days at 25° C.
[2] = test system: mixed bacterial inoculum; settings: for preservative efficacy (in words) / potentiation of the cationic compounds (in words): AIRFLEX 192; for Inoculations Passed: AIRFLEX 192 VAE polymer; for potentiation of the cationic compounds (in words): other metal chelating agent with cationic compound
Source text: The following procedure was used to assess the preservative efficacy of several cationic compounds in an anionic surfactant stabilized VAE copolymer emulsion containing less than 1000 ppm vinyl acetate monomer:
(§1) Aeromonas hydrophilia, Alcaligenes faecalis, Corynebacterium ammoniagenes, Enterobacter aerogenes, Escherichia coli, Klebsiella pneumoniae, Pseudomonas aeruginosa, Proteus vulgaris, Providencia rettgeri, Pseudomonas stutzeri, Shewanella putrefaciens, Serratia liquefaciens, Acinetobacter baumannii, Burkholderia cepacia, Chryseobacterium meningosepticum, Sphingobacterium spiritivorum, Ralstonia pickettii, and Gluconoacetobacter liquefaciens.
(§2) Each bacterial culture was individually grown on nutrient agar slants, except GABL was grown on potato dextrose agar slants, by inoculating the agar surfaces. The nutrient agar slants were incubated for 24-48 hours at 30° C. and the potato dextrose agar slants were incubated for 48-72 hours at 25° C. […] The washings from all of the slants were combined into one sterile, Erlenmeyer flask.
(§3) Rapid Automated Bacterial Impedance Technique (RABIT), supplied by Microbiology International, and manufactured by Don Whitley Scientific, Ltd. utilizes the principal of impedance microbiology to detect and assess microbial activity in a given sample. Using the RABIT, microbial metabolism is monitored by measuring the amount of carbon dioxide produced by actively respiring microorganisms. The electrodes in the RABIT test cells are partially covered with alkaline agar containing potassium hydroxide. As inoculated test samples are monitored on the RABIT, carbon dioxide produced from microbial metabolism is absorbed by the alkaline agar resulting in a change in conductivity. Conductivity is monitored with time and the time to reach a pre-specified rate of reduction in conductivity is termed the time to detection (TTD). Therefore, the shorter the TTD, the higher the number of microorganisms present. Failure can be defined as three successive decreases in conductivity equal to or greater than a pre-specified value (−10 microSiemens is recommended by the manufacturer) at any time during the 72 hour RABIT monitoring period. Alternatively, failure can be defined as a pre-specified total change in conductivity.
(§4) Samples (50 g each) of each test emulsion containing a test antimicrobial agent were inoculated with 1.0 mL of the mixed bacterial inoculum. After mixing well, the samples were then placed in a 30° C. incubator. After 1, 2, and 6 days of incubation, each sample was streak plated onto nutrient agar and potato dextrose agar to assess the level of surviving microorganisms. The nutrient agar plates were incubated at 30° C. for 48 hours before assessing the growth. […] On the seventh day of incubation, each test emulsion sample was inoculated again with a freshly prepared mixed bacterial inoculum, mixed well, then placed back into the incubator. The samples were again streak plated onto nutrient agar and potato dextrose agar after incubating for 1, 2, and 6 days since the second inoculation. On the fourteenth day after the test was initiated, the test emulsions were inoculated a third time with another freshly prepared mixed bacterial inoculum and then placed back into the incubator. The samples were again streak plated onto nutrient agar and potato dextrose agar after 1, 2, 6, and 13 days of incubation since the third inoculation to assess surviving microorganisms. Test failure is defined as a microbial viable count >300 CFU/10 μL observed from the nutrient agar or potato dextrose agar streak plate assessments.
(§5) A small amount of a microbial nutrient (typically yeast extract) was added to each emulsion test sample (50 g) containing a test antimicrobial agent. The resulting samples were then inoculated with 1.0 mL of the mixed bacterial inoculum. After mixing well, an aliquot (5 g) of each test sample was placed into separate RABIT indirect conductivity tubes.

[3] = test system: mixed bacterial inoculum; settings: for preservative efficacy (in words) / potentiation of the cationic compounds (in words): AIRFLEX 410; for Inoculations Passed: AIRFLEX 410 VAE polymer; for potentiation of the cationic compounds (in words): other metal chelating agent with cationic compound
Source text: as §1, §2, §3, §4
as §5, with “tubes. The indirect conductivity tubes were then placed into the RABIT incubator modules set at 30° C. and the conductivity changes monitored for up to 72 hours. The remainder of each test sample was stored in a 30° C. incubator during the RABIT monitoring period.” for “tubes.”

[4] = cationic compound alone, dosage of 300 ppm or similar dosages
[5] = biocide dosage 300 ppm active ingredient
[6] = metal chelating agent by itself
[7] = biocide dosage 1000 ppm active ingredient

## CCCCCCCCCC[N+](C)(C)CCCCCCCCCC.[Cl-] [BTC 1010, Didecyldimethylammonium chloride]
[1]
  Growth on PDA: Dense
  Surface Fungal Growth: Moderate Growth
[2]; [4]
  preservative efficacy (in words): no preservative efficacy
[2]; [5]
  Inoculations Passed: 0
[3]; [4]
  preservative efficacy (in words): no preservative efficacy
[3]; [5]
  Inoculations Passed: 0

## CCCCCCCCCCCCCCCC[n+]1ccccc1 [CPC, cetylpyridinium chloride]
[2]; [5]
  Inoculations Passed: 0
[3]; [5]
  Inoculations Passed: 0

## O=C(O)CC(O)(CC(=O)O)C(=O)O [Citric acid, sodium salt]
[2]
  potentiation of the cationic compounds (in words): do not exhibit potentiation
[2]; [5]
  Inoculations Passed: 0
[3]
  potentiation of the cationic compounds (in words): do not exhibit potentiation

## CCCCCCCCCCCCNC(=N)N.Cl [DGH, n-dodecylguanidine hydrochloride]
[2]; biocide dosage 400 ppm active ingredient
  Inoculations Passed: 0
[3]; [5]
  Inoculations Passed: 0

## O=C([O-])CN(CCN(CC(=O)[O-])CC(=O)[O-])CC(=O)[O-].[Na+].[Na+].[Na+].[Na+] [EDTA salt, tetrasodium salt of ethylenediamine tetraacetic acid]
[1]
  Growth on PDA: Dense
  Surface Fungal Growth: Slight Growth
[1]; used by itself
  protection against the growth of yeasts and molds (in words): no protection
[2]; [6]
  preservative efficacy (in words): inadequate
[2]; [7]
  Inoculations Passed: 0
[3]; [6]
  preservative efficacy (in words): inadequate
[3]; [7]
  Inoculations Passed: 0

## O=C(O)/C=C\C(=O)O [Maleic acid, sodium salt]
[2]
  potentiation of the cationic compounds (in words): do not exhibit potentiation
[2]; [5]
  Inoculations Passed: 0
[3]
  potentiation of the cationic compounds (in words): do not exhibit potentiation

## O=C([O-])c1ccccc1O.[Na+] [Salicylic acid, sodium salt]
[2]; [5]
  Inoculations Passed: 0

## O=P([O-])([O-])[O-].[Na+].[Na+].[Na+] [Trisodium phosphate]
[2]; [5]
  Inoculations Passed: 0
